{"source": "the SangsterLogP compilation", "assay": "method code SF-HPLC, from DOI: 10.1002/(sici)1521-3838(199911)18:5<482::aid-qsar482>3.0.co;2-r", "details": "pH 6.4", "data": [{"molecule": "Cc1ccc(-n2c(Cn3ccc4ccccc43)n[nH]c2=S)cc1", "values": [{"measurement": "logD", "value": 3.2}]}, {"molecule": "Cc1[nH]c2ccccc2c1Cc1n[nH]c(=S)n1-c1ccccc1", "values": [{"measurement": "logD", "value": 2.55}]}, {"molecule": "S=c1[nH]nc(Cn2ccc3ccccc32)n1-c1ccccc1", "values": [{"measurement": "logD", "value": 2.68}]}, {"molecule": "O=[N+]([O-])c1ccc2c(ccn2Cc2n[nH]c(=S)n2-c2ccccc2)c1", "values": [{"measurement": "logD", "value": 2.65}]}, {"molecule": "Cc1ccc(-n2c(Cn3ccc4cc([N+](=O)[O-])ccc43)n[nH]c2=S)cc1", "values": [{"measurement": "logD", "value": 3.17}]}, {"molecule": "Cc1ccc(Nc2nnc(Cn3ccc4ccccc43)s2)cc1", "values": [{"measurement": "logD", "value": 3.99}]}, {"molecule": "c1ccc2c(Nc3nnc(Cn4ccc5ccccc54)s3)cccc2c1", "values": [{"measurement": "logD", "value": 4.54}]}, {"molecule": "Cc1ccc(-n2c(Cc3c(C)[nH]c4ccccc34)n[nH]c2=S)cc1", "values": [{"measurement": "logD", "value": 3}]}, {"molecule": "Cc1[nH]c2ccccc2c1Cc1nnc(Nc2ccccc2)s1", "values": [{"measurement": "logD", "value": 3.11}]}, {"molecule": "S=c1[nH]nc(Cn2ccc3cc(Br)ccc32)n1-c1cccc2ccccc12", "values": [{"measurement": "logD", "value": 3.88}]}]}
